According to patent US10131744B2, “Antimicrobial polyamide compositions and mastitis treatment” (priority 2013, dated 2018):
≈ marks a conversion by molar mass, not a printed value.

Columns and labels:
[1] = tested on: E. faecalis (Str-15) ATCC 29212; assay: MIC in broth against E. faecalis; assay type: cell-based; details: Enterococcus faecalis, ATCC29212
Procedure: (§1) The antimicrobial efficacy of twenty-five antimicrobial polymers (and Erythromycin) was evaluated using an MIC assay. […] Overall, the antimicrobial polymer-containing compositions performed comparably well, or better, against the pathogens, as compared to Erythromycin (ERY).

[2] = tested on: Pasteurella multocida (Canine and BRD); assay: MIC in broth against Pasteurella multocida; assay type: cell-based
Procedure: (§2) The antimicrobial efficacy of twenty-five antimicrobial polymers (and Erythromycin) was evaluated using an MIC assay. For each study, a doubling dilution concentration of each antimicrobial polymer was prepared at 2× the final concentration range (0.12 to 16 μg/mL), and 100 μL of the API-null formulation was dispensed into the negative control wells. Overall, the antimicrobial polymer-containing compositions performed comparably well, or better, against the pathogens, as compared to Erythromycin (ERY).

[3] = tested on: S. pneumoniae (Str-53) ATCC 49619; assay: MIC in broth against S. pneumoniae; assay type: cell-based; details: Streptococcus pneumoniae, ATCC49619
Procedure: as §1

[4] = tested on: Streptococcus canis; assay: MIC in broth against Streptococcus canis; assay type: cell-based; set-up: unit not given beside the values
Procedure: as §2

[5] = tested on: Klebsiella species; assay: MIC in broth against Klebsiella species; assay type: cell-based
Procedure: as §2

[6] = tested on: Coagulase negative Staphylococcus species; assay: MIC in broth against coagulase negative Staphylococcus species; assay type: cell-based
Procedure: as §2

[7] = tested on: Staphylococcus pseudintermedius (including MRSP); assay: MIC in broth against Staphylococcus pseudintermedius (including MRSP); assay type: cell-based; set-up: unit not given beside the values
Procedure: as §2

[8] = tested on: Escherichia coli; assay: MIC in broth against Escherichia coli; assay type: cell-based
Procedure: as §2

[9] = tested on: S. pneumoniae (Str-53) ATCC 49619; details: cited from earlier work
[10] = tested on: Bordetella bronchiseptica; assay: MIC in broth against Bordetella bronchiseptica; assay type: cell-based
Procedure: as §2

[11] = tested on: Streptococcus uberis; assay: MIC in broth against Streptococcus uberis; assay type: cell-based
Procedure: as §2

CC[C@H]1OC(=O)[C@H](C)[C@@H](O[C@H]2C[C@@](C)(OC)[C@@H](O)[C@H](C)O2)[C@H](C)[C@@H](O[C@@H]2O[C@H](C)C[C@H](N(C)C)[C@H]2O)[C@](C)(O)C[C@@H](C)C(=O)[C@H](C)[C@@H](O)[C@]1(C)O [Ery, Erythromycin]
MIC [1]: 2 µg/mL (≈ 2.73 µM)
MIC against Pasteurella multocida ([2]; strain # 168): 0.5
MIC against Pasteurella multocida ([2]; strain # 169): 1
MIC against Pasteurella multocida ([2]; strain # 170): 1
MIC against Pasteurella multocida ([2]; strain # 171): 0.5
MIC against Pasteurella multocida ([2]; strain # 172): 1
MIC against Pasteurella multocida ([2]; strain # 173): 2
MIC against Pasteurella multocida ([2]; strain # 174): 8
MIC against Pasteurella multocida ([2]; strain # 175): 1
MIC against Pasteurella multocida ([2]; strain # 176): 0.5
MIC against Pasteurella multocida ([2]; strain # 177): 2
MIC against Pasteurella multocida ([2]; strain # 178): 4
MIC against Pasteurella multocida ([2]; strain # 179): 2
MIC against Pasteurella multocida ([2]; strain # 180): 2
MIC against Pasteurella multocida ([2]; strain # 181): 2
MIC against Pasteurella multocida ([2]; strain # 182): 2
MIC against Pasteurella multocida ([2]; strain # 183): >8
MIC against Pasteurella multocida ([2]; strain # 184): 2
MIC against Pasteurella multocida ([2]; strain # 185): >8
MIC against Pasteurella multocida ([2]; strain # 186): 2
MIC against Pasteurella multocida ([2]; strain # 187): >8
MIC [3]: 0.06 µg/mL (≈ 0.0818 µM)
MIC against Streptococcus canis ([4]; isolate # 198): 0.06
MIC against Streptococcus canis ([4]; isolate # 199): 0.06
MIC against Streptococcus canis ([4]; isolate # 200): 0.12
MIC against Streptococcus canis ([4]; isolate # 201): 0.06
MIC against Streptococcus canis ([4]; isolate # 202): 0.06
MIC against Streptococcus canis ([4]; isolate # 203): 0.06
MIC against Streptococcus canis ([4]; isolate # 204): 0.06
MIC against Streptococcus canis ([4]; isolate # 205): 0.06
MIC against Streptococcus canis ([4]; isolate # 206): 0.06
MIC against Streptococcus canis ([4]; isolate # 207): 0.06
MIC ([5]; Klebsiella, isolate # 28): > 8 µg/mL
MIC against Klebsiella species ([5]; isolate # 29): >8 µg/mL
MIC against Klebsiella species ([5]; isolate # 30): >8 µg/mL
MIC against Klebsiella species ([5]; isolate # 31): >8 µg/mL
MIC against Klebsiella species ([5]; isolate # 32): >8 µg/mL
MIC against Klebsiella species ([5]; isolate # 33): >8 µg/mL
MIC against Klebsiella species ([5]; isolate # 34): >8 µg/mL
MIC against Klebsiella species ([5]; isolate # 35): >8 µg/mL
MIC against Klebsiella species ([5]; isolate # 36): >8 µg/mL
MIC against Klebsiella species ([5]; isolate # 37): >8 µg/mL
MIC against Klebsiella species ([5]; isolate # 38): >8 µg/mL
MIC against Klebsiella species ([5]; isolate # 39): >8 µg/mL
MIC against Klebsiella species ([5]; isolate # 40): >8 µg/mL
MIC against Klebsiella species ([5]; isolate # 41): >8 µg/mL
MIC against Klebsiella species ([5]; isolate # 42): >8 µg/mL
MIC against Klebsiella species ([5]; isolate # 43): >8 µg/mL
MIC against Klebsiella species ([5]; isolate # 44): >8 µg/mL
MIC against Klebsiella species ([5]; isolate # 45): >8 µg/mL
MIC against Klebsiella species ([5]; isolate # 46): >8 µg/mL
MIC against Klebsiella species ([5]; isolate # 47): >8 µg/mL
MIC ([6]; isolate # 148): 0.12 µg/mL (≈ 0.164 µM)
MIC ([6]; isolate # 149): 0.12 µg/mL (≈ 0.164 µM)
MIC ([6]; isolate # 150): 0.25 µg/mL (≈ 0.341 µM)
MIC ([6]; isolate # 151): 0.25 µg/mL (≈ 0.341 µM)
MIC ([6]; isolate # 152): 0.25 µg/mL (≈ 0.341 µM)
MIC ([6]; isolate # 153): 0.5 µg/mL (≈ 0.681 µM)
MIC ([6]; isolate # 154): 0.5 µg/mL (≈ 0.681 µM)
MIC ([6]; isolate # 155): 0.25 µg/mL (≈ 0.341 µM)
MIC ([6]; isolate # 156): 0.25 µg/mL (≈ 0.341 µM)
MIC ([6]; isolate # 157): 0.12 µg/mL (≈ 0.164 µM)
MIC against Staphylococcus pseudintermedius (+ MSRP) ([7]; isolate # 128): 0.25
MIC against Staphylococcus pseudintermedius (+ MSRP) ([7]; isolate # 129): 0.25
MIC against Staphylococcus pseudintermedius (+ MSRP) ([7]; isolate # 130): 0.25
MIC against Staphylococcus pseudintermedius (+ MSRP) ([7]; isolate # 131): 0.25
MIC against Staphylococcus pseudintermedius (+ MSRP) ([7]; isolate # 132): 0.25
MIC against Staphylococcus pseudintermedius (+ MSRP) ([7]; isolate # 133): 0.25
MIC against Staphylococcus pseudintermedius (+ MSRP) ([7]; isolate # 134): 0.25
MIC against Staphylococcus pseudintermedius (+ MSRP) ([7]; isolate # 135): 0.12
MIC against Staphylococcus pseudintermedius (+ MSRP) ([7]; isolate # 136): 0.25
MIC against Staphylococcus pseudintermedius (+ MSRP) ([7]; isolate # 137): 0.12
MIC against Staphylococcus pseudintermedius (+ MSRP) ([7]; isolate # 138): >8
MIC against Staphylococcus pseudintermedius (+ MSRP) ([7]; isolate # 139): 0.25
MIC against Staphylococcus pseudintermedius (+ MSRP) ([7]; isolate # 140): >8
MIC against Staphylococcus pseudintermedius (+ MSRP) ([7]; isolate # 141): >8
MIC against Staphylococcus pseudintermedius (+ MSRP) ([7]; isolate # 142): >8
MIC against Staphylococcus pseudintermedius (+ MSRP) ([7]; isolate # 143): >8
MIC against Staphylococcus pseudintermedius (+ MSRP) ([7]; isolate # 144): >8
MIC against Staphylococcus pseudintermedius (+ MSRP) ([7]; isolate # 145): >8
MIC against Staphylococcus pseudintermedius (+ MSRP) ([7]; isolate # 146): >8
MIC against Staphylococcus pseudintermedius (+ MSRP) ([7]; isolate # 147): >8
MIC ([8]; isolate # 1 (mastitis)): 2 µg/mL (≈ 2.73 µM)
MIC ([8]; isolate # 2 (mastitis)): > 8 µg/mL
MIC ([8]; isolate # 3 (mastitis)): > 8 µg/mL
MIC ([8]; isolate # 4 (mastitis)): > 8 µg/mL
MIC ([8]; isolate # 5 (mastitis)): > 8 µg/mL
MIC ([8]; isolate # 6 (mastitis)): > 8 µg/mL
MIC ([8]; isolate # 7 (mastitis)): > 8 µg/mL
MIC ([8]; isolate # 8 (mastitis)): > 8 µg/mL
MIC ([8]; isolate # 9 (mastitis)): > 8 µg/mL
MIC ([8]; isolate # 10 (mastitis)): > 8 µg/mL
MIC ([8]; isolate # 11 (canine wound)): > 8 µg/mL
MIC ([8]; isolate # 12 (canine wound)): > 8 µg/mL
MIC ([8]; isolate # 13 (canine wound)): > 8 µg/mL
MIC ([8]; isolate # 14 (canine wound)): > 8 µg/mL
MIC ([8]; isolate # 15 (canine wound)): > 8 µg/mL
MIC ([8]; isolate # 16 (canine wound)): > 8 µg/mL
MIC ([8]; isolate # 17 (canine wound)): > 8 µg/mL
MIC ([8]; isolate # 18 (canine wound)): > 8 µg/mL
MIC ([8]; isolate # 19 (canine wound)): > 8 µg/mL
MIC ([8]; isolate # 20 (canine wound)): > 8 µg/mL
Known range (MIC) [9]: .03 to .12 µg/mL
MIC ([10]; isolate # 78 (canine/feline)): 8 µg/mL (≈ 10.9 µM)
MIC ([10]; isolate # 79 (canine/feline)): 8 µg/mL (≈ 10.9 µM)
MIC ([10]; isolate # 80 (canine/feline)): 2 µg/mL (≈ 2.73 µM)
MIC ([10]; isolate # 81 (canine/feline)): 8 µg/mL (≈ 10.9 µM)
MIC ([10]; isolate # 82 (canine/feline)): 2 µg/mL (≈ 2.73 µM)
MIC ([10]; isolate # 83 (canine/feline)): 8 µg/mL (≈ 10.9 µM)
MIC ([10]; isolate # 84 (canine/feline)): 8 µg/mL (≈ 10.9 µM)
MIC ([10]; isolate # 85 (canine/feline)): > 8 µg/mL
MIC ([10]; isolate # 86 (canine/feline)): > 8 µg/mL
MIC ([10]; isolate # 87 (canine/feline)): 8 µg/mL (≈ 10.9 µM)
MIC ([11]; isolate # 218): 0.06 µg/mL (≈ 0.0818 µM)
MIC ([11]; isolate # 219): 0.5 µg/mL (≈ 0.681 µM)
MIC ([11]; isolate # 220): 0.06 µg/mL (≈ 0.0818 µM)
MIC ([11]; isolate # 221): 1 µg/mL (≈ 1.36 µM)
MIC ([11]; isolate # 222): 0.06 µg/mL (≈ 0.0818 µM)
MIC ([11]; isolate # 223): 0.06 µg/mL (≈ 0.0818 µM)
MIC ([11]; isolate # 224): 0.06 µg/mL (≈ 0.0818 µM)
MIC ([11]; isolate # 225): 2 µg/mL (≈ 2.73 µM)
MIC ([11]; isolate # 226): 0.06 µg/mL (≈ 0.0818 µM)
MIC ([11]; isolate # 227): 2 µg/mL (≈ 2.73 µM)
